In publication PMC10424186 (Journal of Medicinal Chemistry, 2023):
Values joined by “and” are separate entries in the source; they are usually repeats but may differ in a detail not shown here. Identical values can stand only once. Like-named read-outs stand apart in the source and are kept apart here.

Key:
human JMJD5 = human JMJD5 (Homo sapiens, UniProt Q8N371); assay: SPE-MS JMJD5 inhibition assay (hydroxylation of RPS6 128–148 peptide); format: biochemical
From the text: Synthetic peptides with sequences based on reported human 2OG oxygenase substrates were used in SPE-MS inhibition assays: RPS6, residues 128–148, for JMJD5;[42] HIF-α CODD, residues 558–574, for PHD2;[70] HIF-α CAD, residues 788–822, for FIH;[70] H3_1-15K9me3, histone 3 (H3), residues 1–15 with K9 of H3-bearing three methyl groups at the N^ε-position, K4 of H3 substituted by an alanine residue, and K14 of H3 by an isoleucine residue,[73] for KDM4E; and RPL27A, residues 31–49, for RIOX2 (Mina53).[44] All peptides were prepared as C-terminal amides by GL Biochem (Shanghai) Ltd. A synthetic thioether-linked cyclic peptide, hFX-CP101–119,[48] which was designed based on the reported cellular AspH substrate human coagulation factor X (hFX, residues 101–119; C101 was substituted for a D-alanine residue and C112 for a serine residue),[79] was used as AspH substrate; it was prepared with a C-terminal amide according to literature protocols.[80]
Cosubstrate/cofactor stock solutions [L-ascorbic acid/LAA: 50 mM in MQ-grade water; 2-oxoglutarate/2OG: 10 mM in MQ-grade water; ammonium iron(II) sulfate hexahydrate/FAS/(NH4)2Fe(SO4)2·6H2O: 400 mM in 20 mM HCl diluted to 1 mM in MQ-grade water] were freshly prepared from commercial solids (Sigma-Aldrich) on the day the assays were performed. The JMJD5,[42] PHD2,[70] FIH,[70] KDM4E,[72],[73] RIOX2,[44] and AspH[45] SPE-MS inhibition assays were performed as described in the cited literature, using isolated recombinant human enzymes (His6-thioredoxin-JMJD5,[42] His6-PHD2_181–426,[70] His6-FIH,[70] His6-KDM4E,[72],[73] His6-RIOX2_26–465,[87],[88] and His6-AspH315–758[48],[80]) and synthetic peptide substrates (RPS6_128–148 for JMJD5;[42] HIF-α CODD558–574 for PHD2;[70] HIF-α CAD788–822 for FIH;[70] H3_1–15K9me3 for KDM4E;[73] RPL27A31–49 for RIOX2;[44],[71] and hFX-CP101–119 for AspH;[45],[48] see above). For JMJD5, PHD2, FIH, RIOX2, and AspH, substrate hydroxylation was monitored (+16 Da mass shift), while for the KDM4E substrate, demethylation was monitored (−14 Da mass shift) by SPE-MS.

KDM4E [1] = molecular target: T1, KDM4E (Homo sapiens, UniProt B2RXH2); assay: SPE-MS KDM4E inhibition assay (demethylation of H3 1–15 K9me3); format: biochemical; conditions: Table 2, 10.0 μM H3 1–15 K9me3, n = 2, mean ± SD
T1 construct: made in house; host or cells: Escherichia coli
T1 sequence (B2RXH2 1-506): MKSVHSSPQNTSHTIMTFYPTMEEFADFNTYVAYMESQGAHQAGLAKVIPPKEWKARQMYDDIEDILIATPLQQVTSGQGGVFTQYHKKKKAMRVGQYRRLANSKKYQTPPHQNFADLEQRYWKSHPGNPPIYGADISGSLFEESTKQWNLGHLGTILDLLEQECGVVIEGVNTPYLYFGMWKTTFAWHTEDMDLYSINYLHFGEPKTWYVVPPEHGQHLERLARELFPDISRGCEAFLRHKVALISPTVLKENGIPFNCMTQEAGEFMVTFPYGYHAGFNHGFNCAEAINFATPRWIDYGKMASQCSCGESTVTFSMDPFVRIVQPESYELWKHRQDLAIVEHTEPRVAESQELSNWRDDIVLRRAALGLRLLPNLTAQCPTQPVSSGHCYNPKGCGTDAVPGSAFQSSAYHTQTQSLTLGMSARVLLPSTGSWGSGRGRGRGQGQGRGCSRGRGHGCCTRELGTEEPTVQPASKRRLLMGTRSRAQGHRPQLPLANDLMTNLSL
Method: (§1) H3_1-15K9me3, histone 3 (H3), residues 1–15 with K9 of H3-bearing three methyl groups at the N^ε-position, K4 of H3 substituted by an alanine residue, and K14 of H3 by an isoleucine residue,[73] for KDM4E; and RPL27A, residues 31–49, for RIOX2 (Mina53).[44]
(§2) Cosubstrate/cofactor stock solutions [L-ascorbic acid/LAA: 50 mM in MQ-grade water; 2-oxoglutarate/2OG: 10 mM in MQ-grade water; ammonium iron(II) sulfate hexahydrate/FAS/(NH4)2Fe(SO4)2·6H2O: 400 mM in 20 mM HCl diluted to 1 mM in MQ-grade water] were freshly prepared from commercial solids (Sigma-Aldrich) on the day the assays were performed. The JMJD5,[42] PHD2,[70] FIH,[70] KDM4E,[72],[73] RIOX2,[44] and AspH[45] […] For JMJD5, PHD2, FIH, RIOX2, and AspH, substrate hydroxylation was monitored (+16 Da mass shift), while for the KDM4E substrate, demethylation was monitored (−14 Da mass shift) by SPE-MS.

AspH = molecular target: T2, AspH (Homo sapiens, UniProt Q12797); assay: SPE-MS AspH inhibition assay (hFX-CP101–119 hydroxylation); format: biochemical; conditions: Table 2; His6-AspH315–758 0.05 μM, 1.0 μM hFX-CP101–119; n = 2, mean ± SD
T2 construct: N-terminally His6-tagged AspH315–758; made in house; host or cells: Escherichia coli
T2 sequence (Q12797 315-758): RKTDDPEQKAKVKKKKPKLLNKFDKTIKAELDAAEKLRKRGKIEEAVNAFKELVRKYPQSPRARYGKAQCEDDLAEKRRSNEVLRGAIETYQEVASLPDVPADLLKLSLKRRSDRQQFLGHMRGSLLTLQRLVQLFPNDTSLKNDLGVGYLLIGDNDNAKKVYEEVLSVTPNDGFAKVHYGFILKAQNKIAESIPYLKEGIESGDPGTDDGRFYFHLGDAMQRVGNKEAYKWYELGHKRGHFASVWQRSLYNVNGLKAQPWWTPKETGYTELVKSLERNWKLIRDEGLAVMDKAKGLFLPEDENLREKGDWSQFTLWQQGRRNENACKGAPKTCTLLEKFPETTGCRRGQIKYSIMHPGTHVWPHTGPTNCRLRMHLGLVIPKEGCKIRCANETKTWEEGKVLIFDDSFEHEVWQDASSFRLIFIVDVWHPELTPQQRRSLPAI
Method: as §1, §2

PHD2 = molecular target: T3, PHD2 (Homo sapiens, UniProt Q9GZT9); assay: SPE-MS PHD2 inhibition assay (HIF-1α CODD hydroxylation); format: biochemical; conditions: Table 2; PHD2 181–426 […], 5.0 μM HIF-1α CODD; n = 2, mean ± SD
T3 construct: His6-PHD2_181–426; made in house; host or cells: Escherichia coli
Method: as §1, §2

RIOX2 = molecular target: T4, RIOX2 (Homo sapiens, UniProt Q8IUF8); assay: SPE-MS RIOX2 inhibition assay (RPL27A31–49 hydroxylation); format: biochemical; conditions: Table 2; His6-RIOX2 26–465 […], 5.0 μM RPL27A31–49; n = 2, mean ± SD
T4 construct: N-terminally His6-tagged RIOX2_26–465; made in house; host or cells: Escherichia coli
Method: Cosubstrate/cofactor stock solutions [L-ascorbic acid/LAA: 50 mM in MQ-grade water; 2-oxoglutarate/2OG: 10 mM in MQ-grade water; ammonium iron(II) sulfate hexahydrate/FAS/(NH4)2Fe(SO4)2·6H2O: 400 mM in 20 mM HCl diluted to 1 mM in MQ-grade water] were freshly prepared from commercial solids (Sigma-Aldrich) on the day the assays were performed. […] For JMJD5, PHD2, FIH, RIOX2, and AspH, substrate hydroxylation was monitored (+16 Da mass shift), while for the KDM4E substrate, demethylation was monitored (−14 Da mass shift) by SPE-MS.

KDM4E [2] = molecular target: T1, KDM4E; conditions: Supporting Table S1; reported FDH-coupled spectrophotometric assay; ref SI 17; cited from earlier work
[3] = Table 1, JMJD5 […], 2OG 2.0 μM, Fe(II) 2.0 μM, LAA 100 μM, RPS6 128–148 2.0 μM, pH 7.5, 20 °C, n = 3, mean ± SD, read-out: IC50 JMJD5
[4] = isolated recombinant JMJD5, SPE-MS, approximate values, read-out: IC50 for JMJD5 inhibition
[5] = supplementary CSV, read-out: IC50 JMJD5
[6] = isolated recombinant JMJD5, SPE-MS
[7] = Table 2, JMJD5 […], 2OG 2.0 μM, Fe(II) 2.0 μM, LAA 100 μM, RPS6 128–148 2.0 μM, n = 3, mean ± SD, read-out: IC50 JMJD5
[8] = Supporting Table S1, JMJD5 […], 2OG 2.0 μM, RPS6 128-148 2.0 μM, pH 7.5, 20 °C, n = 3, mean ± SD, read-out: IC50 JMJD5

T3 sequence (Q9GZT9 181-426): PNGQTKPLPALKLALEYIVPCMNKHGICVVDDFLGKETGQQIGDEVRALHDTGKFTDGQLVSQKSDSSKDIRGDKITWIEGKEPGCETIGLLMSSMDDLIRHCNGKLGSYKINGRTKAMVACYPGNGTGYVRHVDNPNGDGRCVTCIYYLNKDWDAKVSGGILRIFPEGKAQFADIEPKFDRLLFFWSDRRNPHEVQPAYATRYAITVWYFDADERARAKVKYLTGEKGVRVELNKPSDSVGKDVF
human JMJD5, sequence (Q8N371 whole entry, the tested form may be a part): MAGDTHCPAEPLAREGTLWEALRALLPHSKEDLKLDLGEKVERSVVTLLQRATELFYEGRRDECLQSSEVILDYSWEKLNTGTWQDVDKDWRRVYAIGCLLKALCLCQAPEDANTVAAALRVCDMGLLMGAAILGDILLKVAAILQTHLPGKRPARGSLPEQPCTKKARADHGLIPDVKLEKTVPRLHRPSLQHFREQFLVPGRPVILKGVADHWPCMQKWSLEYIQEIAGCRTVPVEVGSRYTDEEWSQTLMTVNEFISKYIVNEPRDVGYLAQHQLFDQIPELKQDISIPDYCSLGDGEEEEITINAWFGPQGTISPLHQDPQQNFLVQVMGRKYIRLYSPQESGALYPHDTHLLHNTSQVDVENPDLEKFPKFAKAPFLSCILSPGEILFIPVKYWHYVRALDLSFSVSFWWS
T4 sequence (Q8IUF8 26-465): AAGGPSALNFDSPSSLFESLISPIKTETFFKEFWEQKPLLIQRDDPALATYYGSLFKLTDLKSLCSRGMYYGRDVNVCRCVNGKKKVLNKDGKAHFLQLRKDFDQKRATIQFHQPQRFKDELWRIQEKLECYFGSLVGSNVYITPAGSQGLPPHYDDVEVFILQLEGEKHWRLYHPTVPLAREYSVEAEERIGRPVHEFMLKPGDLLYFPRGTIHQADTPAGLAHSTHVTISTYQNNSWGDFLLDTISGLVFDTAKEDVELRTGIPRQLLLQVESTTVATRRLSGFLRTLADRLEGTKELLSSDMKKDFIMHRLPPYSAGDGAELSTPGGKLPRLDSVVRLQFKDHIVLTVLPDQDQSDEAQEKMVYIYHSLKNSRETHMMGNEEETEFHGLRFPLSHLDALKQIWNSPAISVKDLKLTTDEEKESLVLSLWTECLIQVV

Structure (SMILES)	IC50 (human JMJD5; [3])	IC50 (human JMJD5; [5])	IC50 (human JMJD5; [8])	other results
O=C(O)c1ccnc(C(=O)O)c1Nc1ccccc1[N+](=O)[O-] [Compound 2]	17.9 ± 2.6 µM	17.9 ± 2.6 µM	–	IC50 (human JMJD5; [4]): ~17.9 µM and ~16.8 µM
O=C(O)c1ccnc(C(=O)O)c1NCc1ccccc1 [Compound 3]	9.5 ± 2.2 µM	9.5 ± 2.2 µM	–	–
O=C(O)c1ccncc1NCc1ccccc1 [Compound 4]	> 50 µM	> 50 µM	–	JMJD5 inhibition (in words) (human JMJD5; [6]): does not inhibit JMJD5
O=C(O)c1ccnc(C(=O)O)c1NCC1CCCCC1 [Compound 5]	25.3 ± 0.5 µM	25.3 ± 0.5 µM	–	IC50 (human JMJD5; [4]): ~25.3 µM
COc1ccc(CNc2c(C(=O)O)ccnc2C(=O)O)cc1 [Compound 6]	5.8 ± 2.9 µM	5.8 ± 2.9 µM	–	–
O=C(O)c1ccnc(C(=O)O)c1NCc1ccc(C(F)(F)F)cc1 [Compound 7]	10.4 ± 4.4 µM	10.4 ± 4.4 µM	–	–
CC(Nc1c(C(=O)O)ccnc1C(=O)O)c1ccccc1 (centres unmarked) [Compound 8]	3.1 ± 1.5 µM	3.1 ± 1.5 µM	–	JMJD5 inhibition less efficient than 2,4-PDCA (1) (human JMJD5; compared with 1): ~6 fold and ~ 5 fold; JMJD5 inhibition more efficient than 3 (human JMJD5; compared with 3): ~3 fold; IC50 (human JMJD5; [4]): ~3.1 µM
CCC(Nc1c(C(=O)O)ccnc1C(=O)O)c1ccccc1 (centres unmarked) [Compound 9]	7.5 ± 2 µM	7.5 ± 2 µM	–	IC50 (human JMJD5; [4]): ~7.5 µM
O=C(O)c1ccnc(C(=O)O)c1NCCc1ccccc1 [Compound 10]	19.6 ± 3 µM	19.6 ± 3 µM	–	–
O=C(O)c1ccnc(C(=O)O)c1NCCCc1ccccc1 [Compound 11]	19.7 ± 3 µM	19.7 ± 3 µM	–	–
O=C(O)c1ccnc(C(=O)O)c1NCCCCc1ccccc1 [Compound 12]	20.8 ± 0.2 µM	20.8 ± 0.2 µM	–	–
O=C(O)c1ccnc(C(=O)O)c1F [Compound 13, 3-fluoro-2,4-PDCA]	27.2 ± 2.9 µM	27.2 ± 2.9 µM	–	JMJD5 inhibition (in words) (human JMJD5; [6]): did not efficiently inhibit JMJD5
O=C(O)c1cc(C(=O)O)c(F)cn1 [Compound 15, 5-fluoro-2,4-PDCA]	4.5 ± 0.9 µM	4.5 ± 0.9 µM	–	JMJD5 inhibition (in words) (human JMJD5; [6]): inhibits; IC50 (human JMJD5; [4]): ~4.5 µM
O=C(O)c1cc(C(=O)O)c(NCc2ccccc2)cn1 [Compound 20a, 5-(benzylamino)pyridine-2,4-dicarboxylic acid]	–	–	–	IC50 (KDM4E [1]): 3.2 ± 1.6 µM; IC50 (AspH): 0.5 ± 0.2 µM; IC50 (PHD2): > 50 µM
O=C(O)c1cc(C(=O)O)c(NCCCCc2ccccc2)cn1 [Compound 20d, 5-((4-phenylbutyl)amino)pyridine-2,4-dicarboxylic acid]	–	–	–	IC50 (human JMJD5; [7]): 0.4 ± 0.2 µM; IC50 (KDM4E [1]): 3.6 ± 0.7 µM; IC50 (AspH): 1.9 ± 0.2 µM; IC50 (PHD2): 20.4 ± 0.8 µM
CC(Nc1cnc(C(=O)O)cc1C(=O)O)c1ccccc1 (centres unmarked) [Compound 20e]	–	–	–	IC50 (human JMJD5; [7]): 17.5 ± 2.5 µM; IC50 (human JMJD5; [4]): ~17.5 µM; IC50 (KDM4E [1]): 22.7 ± 0.4 µM; IC50 (AspH): 5.9 ± 1.9 µM; IC50 (PHD2): > 50 µM
O=C(O)c1cc(C(=O)O)c(NCC2CCCCC2)cn1 [Compound 20f]	–	–	–	IC50 (KDM4E [1]): 3.2 ± 0.3 µM; IC50 (AspH): 2.6 ± 0.6 µM; IC50 (PHD2): > 50 µM; IC50 (RIOX2): 34 ± 8.5 µM
O=C(O)c1cc(C(=O)O)c(NCc2ccc(C(F)(F)F)cc2)cn1 [Compound 20g]	–	–	–	IC50 (KDM4E [1]): 6.2 ± 1.1 µM; IC50 (AspH): 1.2 ± 0.1 µM; IC50 (PHD2): > 50 µM
O=C(O)c1ccnc(C(=O)O)c1Nc1ccccc1 [Compound 21]	–	> 50 µM	> 50 µM	IC50 (KDM4E [2]): 19 µM
O=C(O)c1ccccc1Nc1c(C(=O)O)ccnc1C(=O)O [Compound 24]	–	> 50 µM	> 50 µM	IC50 (KDM4E [2]): 166 µM
O=C(O)c1ccnc(C(=O)O)c1Nc1ccccc1F [Compound 25]	–	46.9 ± 4.6 µM	46.9 ± 4.6 µM	–
Cc1ccccc1Nc1c(C(=O)O)ccnc1C(=O)O [Compound 26]	–	> 50 µM	> 50 µM	IC50 (KDM4E [2]): 41 µM
COc1ccccc1Nc1c(C(=O)O)ccnc1C(=O)O [Compound 27]	–	29.6 ± 4.3 µM	29.6 ± 4.3 µM	IC50 (KDM4E [2]): 19 µM
CSc1ccccc1Nc1c(C(=O)O)ccnc1C(=O)O [Compound 28]	–	41.5 ± 2.2 µM	41.5 ± 2.2 µM	IC50 (KDM4E [2]): 48 µM
Nc1ccccc1Nc1c(C(=O)O)ccnc1C(=O)O [Compound 29]	–	39.6 ± 11.2 µM	39.6 µM	–
CC(Nc1cnccc1C(=O)O)c1ccccc1 (centres unmarked) [Compound 30]	–	> 50 µM	> 50 µM	–
O=C(O)c1ccnc(C(=O)O)c1NCCc1ccc(Cl)cc1 [Compound 31]	–	10.3 ± 3.1 µM	10.3 ± 3.1 µM	–
O=C(O)c1ccncc1NCCc1ccc(Cl)cc1 [Compound 32]	–	> 50 µM	> 50 µM	–
COC(=O)c1ccnc(C(=O)OC)c1 [dimethyl 2,4-PDCA, reference compound]	–	–	> 50 µM	JMJD5 inhibition (in words) (human JMJD5; [6]): does not inhibit isolated recombinant JMJD5; JMJD5 inhibition (in words) (human JMJD5; isolated recombinant JMJD5, SPE-MS, listed as dimethyl ester derivative of 1): does not inhibit isolated recombinant JMJD5 efficiently
